# Results as given in patent publication US11174245B2, “Benzimidazole compounds and derivatives as EGFR inhibitors” (Boehringer Ingelheim International GmbH, priority 2018, dated 2021).
# Where two headings read alike, the source gives them in different places.
# Key:
# [1] = molecular target: EGFR wt (Homo sapiens (Human), UniProt P00533); test: Biochemical EGFR inhibition assay (TR-FRET, poly-GT substrate), EGFR wt
# Procedure: (§1) Biochemical EGFR Inhibition Assays
# (§2) Initially, the inhibitory effect of compounds according to the invention is measured in biochemical assays which measure the phosphorylation activity of EGFR enzyme forms on poly-GT substrate in the presence of different concentrations of ATP (5 μM and 100 μM final assay concentration).
# (§3) The following enzyme forms of EGFR are representative examples that can be used in these assays at the given concentrations:
# (§4) For the chosen highest assay concentration of 100 μM, 150 nL of compound solution is transferred from a 10 mM DMSO compound stock solution. A series of eleven fivefold dilutions per compound is transferred to the assay plate, compound dilutions are tested in duplicates. DMSO is added as backfill to a total volume of 150 nL. The assay runs on a fully automated robotic system.
# (§5) These biochemical EGFR enzyme form compound dose-response assays quantify the kinase activity via phosphorylation of a tagged poly-GT substrate. The results of the assay are provided as IC50 values.
# [2] = molecular target: EGFR (mutated) 695-1022, T790M, C797S, L858R (Homo sapiens (Human), UniProt P00533, C797S/L858R/T790M); test: Biochemical EGFR inhibition assay (TR-FRET, poly-GT substrate), EGFR T790M C797S L858R
# Procedure: as §1, §2, §3, §4, §5
# [3] = molecular target: EGFR del19 T790M C797S protein in Ba/F3 cells (Homo sapiens, UniProt P00533, C797S/DEL746-750/T790M); test: pEGFR assay (AlphaScreen Surefire, EGFR Tyr1068 phosphorylation); format: cell-based
# Procedure: Transduced cells were selected using puromycin. Following selection, IL-3 was withdrawn and IL-3 independent cells cultured. p-EGFR Tyr1068 was determined using the AlphaScreen Surefire pEGF Receptor (Tyr1068) Assay (PerkinElmer, TGRERS). […] Subsequently, 60.000 cells/well in 60 μL were added. Cells were incubated with compound for 4 h at 37° C. […] The mixture was incubated at room temperature with shaking (700 rpm) for 20 min. After centrifugation, 4 μL of the lysate were transferred to Proxiplates. […] Plates were shaken for 1 min (1400 rpm) and incubated for 2 h at room temperature in the dark.
# The results of the assay are provided as IC50 values (see table 12).
# [4] = read-out: wt (100 μM ATP) IC50, 100 μM ATP
# [5] = read-out: LR_TM_CS (100 μM ATP) IC50, 100 μM ATP
# [6] = read-out: wt (5 μM ATP) IC50, 5 μM ATP
# [7] = read-out: LR_TM_CS (5 μM ATP) IC50, 5 μM ATP
# Chain of EGFR (mutated) 695-1022, T790M, C797S, L858R (P00533 695-1022 T790M/C797S/L858R): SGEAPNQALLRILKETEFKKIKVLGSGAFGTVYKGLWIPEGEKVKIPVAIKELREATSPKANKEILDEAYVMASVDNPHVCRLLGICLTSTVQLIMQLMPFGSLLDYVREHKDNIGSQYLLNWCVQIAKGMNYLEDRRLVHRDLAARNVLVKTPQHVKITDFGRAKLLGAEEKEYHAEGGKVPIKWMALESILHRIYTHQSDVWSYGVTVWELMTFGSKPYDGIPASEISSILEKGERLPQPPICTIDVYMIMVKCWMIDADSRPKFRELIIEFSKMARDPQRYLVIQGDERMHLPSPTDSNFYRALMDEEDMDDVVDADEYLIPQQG
# Chain of EGFR del19 T790M C797S protein in Ba/F3 cells (P00533 with tags, fused parts or gaps C797S/DEL746-750/T790M limits assumed): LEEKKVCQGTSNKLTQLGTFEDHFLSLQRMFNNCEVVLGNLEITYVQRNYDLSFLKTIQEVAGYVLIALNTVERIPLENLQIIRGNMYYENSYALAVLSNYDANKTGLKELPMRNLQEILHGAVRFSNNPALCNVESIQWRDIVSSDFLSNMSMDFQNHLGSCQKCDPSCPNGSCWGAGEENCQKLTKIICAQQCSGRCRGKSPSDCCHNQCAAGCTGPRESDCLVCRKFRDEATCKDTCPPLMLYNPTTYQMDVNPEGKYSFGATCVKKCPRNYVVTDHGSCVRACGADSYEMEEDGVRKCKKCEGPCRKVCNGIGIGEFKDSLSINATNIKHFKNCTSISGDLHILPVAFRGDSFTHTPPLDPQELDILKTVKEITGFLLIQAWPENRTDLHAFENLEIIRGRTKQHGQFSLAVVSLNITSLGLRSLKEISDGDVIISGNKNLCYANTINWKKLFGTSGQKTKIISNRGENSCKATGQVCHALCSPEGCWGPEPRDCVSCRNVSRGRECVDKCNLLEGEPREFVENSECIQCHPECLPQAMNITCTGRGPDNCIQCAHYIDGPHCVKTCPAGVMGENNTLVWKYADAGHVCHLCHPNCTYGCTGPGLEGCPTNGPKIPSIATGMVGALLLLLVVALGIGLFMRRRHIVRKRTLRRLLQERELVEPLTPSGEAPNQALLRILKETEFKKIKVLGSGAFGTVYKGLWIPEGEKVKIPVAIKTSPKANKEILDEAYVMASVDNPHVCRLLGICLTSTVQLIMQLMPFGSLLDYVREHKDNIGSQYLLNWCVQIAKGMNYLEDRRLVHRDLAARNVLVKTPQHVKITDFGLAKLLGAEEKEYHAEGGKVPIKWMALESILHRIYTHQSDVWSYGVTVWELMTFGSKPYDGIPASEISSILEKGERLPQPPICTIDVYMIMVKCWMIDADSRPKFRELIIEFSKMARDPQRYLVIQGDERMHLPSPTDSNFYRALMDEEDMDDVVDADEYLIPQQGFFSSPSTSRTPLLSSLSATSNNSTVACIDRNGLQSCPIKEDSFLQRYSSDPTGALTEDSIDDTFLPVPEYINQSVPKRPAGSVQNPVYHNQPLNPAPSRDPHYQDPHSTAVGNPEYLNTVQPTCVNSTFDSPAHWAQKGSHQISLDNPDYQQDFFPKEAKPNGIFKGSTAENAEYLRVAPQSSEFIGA
# Chain of EGFR wt (P00533 25-1210): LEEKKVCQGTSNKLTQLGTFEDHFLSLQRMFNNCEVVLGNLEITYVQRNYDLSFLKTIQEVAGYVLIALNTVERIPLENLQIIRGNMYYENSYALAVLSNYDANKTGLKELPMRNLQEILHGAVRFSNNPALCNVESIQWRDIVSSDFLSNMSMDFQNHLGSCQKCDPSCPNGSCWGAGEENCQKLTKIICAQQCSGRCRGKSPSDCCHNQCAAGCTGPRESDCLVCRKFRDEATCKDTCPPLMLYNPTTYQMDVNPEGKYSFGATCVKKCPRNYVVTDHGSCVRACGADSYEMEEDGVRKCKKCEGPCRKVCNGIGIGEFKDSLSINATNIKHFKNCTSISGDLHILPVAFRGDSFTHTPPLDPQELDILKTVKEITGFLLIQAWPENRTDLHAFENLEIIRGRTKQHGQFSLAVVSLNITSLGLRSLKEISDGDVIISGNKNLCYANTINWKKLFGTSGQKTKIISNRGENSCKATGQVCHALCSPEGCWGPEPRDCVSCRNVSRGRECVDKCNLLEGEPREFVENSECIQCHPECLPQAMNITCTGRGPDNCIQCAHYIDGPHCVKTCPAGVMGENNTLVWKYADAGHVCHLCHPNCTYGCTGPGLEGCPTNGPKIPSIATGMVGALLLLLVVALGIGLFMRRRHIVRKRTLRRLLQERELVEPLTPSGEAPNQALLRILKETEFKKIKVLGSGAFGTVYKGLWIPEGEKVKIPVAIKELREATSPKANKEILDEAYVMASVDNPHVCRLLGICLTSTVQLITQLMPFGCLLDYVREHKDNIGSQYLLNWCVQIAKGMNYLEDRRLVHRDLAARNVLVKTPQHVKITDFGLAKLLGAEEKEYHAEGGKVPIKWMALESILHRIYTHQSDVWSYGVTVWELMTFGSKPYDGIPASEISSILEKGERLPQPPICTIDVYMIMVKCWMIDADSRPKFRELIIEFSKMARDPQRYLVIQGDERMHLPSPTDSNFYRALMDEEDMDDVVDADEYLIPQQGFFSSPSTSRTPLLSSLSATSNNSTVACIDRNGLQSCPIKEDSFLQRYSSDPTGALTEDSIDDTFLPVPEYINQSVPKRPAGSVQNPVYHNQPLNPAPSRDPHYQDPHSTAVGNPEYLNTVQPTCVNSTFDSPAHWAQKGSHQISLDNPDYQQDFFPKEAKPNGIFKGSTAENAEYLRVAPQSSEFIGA
Structure (SMILES),"IC50 [1, 4]","IC50 [2, 5]",IC50 [3],"IC50 [1, 6]","IC50 [2, 7]"
COc1ccncc1-c1cc(C(=O)/N=c2\[nH]c3ccccc3n2CC(C)(C)O)ccn1 [I-018],10000 nM,11.9 nM,1 nM,–,–
Cn1cc(-c2cc(C(=O)/N=c3\[nH]c4cc(C5CCN(C6CC6)CC5)ccc4n3CC(C)(C)O)ccn2)cn1 [I-042],14600 nM,24.3 nM,3 nM,–,–
CC(C)(O)Cn1/c(=N/C(=O)c2ccnc(-c3cccnc3)c2)[nH]c2cc(CCO)ccc21 [I-056],–,–,5 nM,> 100000 nM,118 nM
COc1ccccc1-c1cc(C(=O)/N=c2\[nH]c3cc(CN4CCOCC4)ccc3n2CC(C)(C)O)ccn1 [I-060],–,–,1 nM,65.6 nM,0.7 nM
CC(C)(O)Cn1/c(=N/C(=O)c2ccnc(-c3ccccc3)c2)[nH]c2ccccc21 [I-064],> 100000 nM,267 nM,9 nM,> 4000 nM,13.1 nM
COCCCNc1ccc2c(c1)[nH]/c(=N\C(=O)c1ccnc(-c3cccnc3)c1)n2CC(C)(C)O [I-78],21100 nM,95.2 nM,5 nM,–,–
CC(C)(O)Cn1/c(=N/C(=O)c2ccnc(-c3cccn4cnnc34)c2)[nH]c2ccccc21 [I-91],–,–,16 nM,14700 nM,61.1 nM
CN(C)Cc1cccc(-c2cc(C(=O)/N=c3\[nH]c4ccccc4n3CC(C)(C)O)ccn2)c1 [I-102],6060 nM,13.7 nM,2 nM,213 nM,1 nM
COc1ccccc1-c1cc(C(=O)/N=c2\[nH]c3ccccc3n2CC(C)(C)O)ccn1 [I-105],1800 nM,10.3 nM,2 nM,–,0.7 nM
O=C(/N=c1\[nH]c2ccccc2n1[C@H]1CC[C@@H](O)CC1)c1ccnc(-c2ccccc2)c1 [I-107],> 100000 nM,45.7 nM,4 nM,336 nM,1.8 nM
COc1ccccc1-c1cc(C(=O)/N=c2\[nH]c3ccccc3n2[C@H]2CC[C@@H](O)CC2)ccn1 [I-108],1010 nM,10.3 nM,3 nM,19.3 nM,0.6 nM
Cc1ccc2c(c1)[nH]/c(=N\C(=O)c1ccnc(-c3cnn4cccnc34)c1)n2[C@H]1CC[C@@H](O)CC1 [I-110],4420 nM,3.7 nM,1 nM,–,–
Cc1ccc2c(c1)[nH]/c(=N\C(=O)c1ccnc(-c3cccc(CN(C)C)c3)c1)n2[C@H]1CC[C@@H](O)CC1 [I-111],7040 nM,10.3 nM,4 nM,–,–
Cn1cc(-c2cc(C(=O)/N=c3\[nH]c4ccccc4n3[C@H]3CCC[C@@H](O)C3)ccn2)cn1 [I-112],–,–,13 nM,777 nM,3.1 nM
CN(C)Cc1cccc(-c2cc(C(=O)/N=c3\[nH]c4ccccc4n3[C@H]3CC[C@@H](O)CC3)ccn2)c1 [I-114],6650 nM,18.6 nM,2 nM,–,–
O=C(/N=c1\[nH]c2ccccc2n1[C@H]1CC[C@@H](O)CC1)c1ccnc(-c2cnn3cccnc23)c1 [I-115],2420 nM,5.8 nM,1 nM,–,–
Cn1cc(-c2cc(C(=O)/N=c3\[nH]c4ccccc4n3[C@H]3CCC[C@H](O)C3)ccn2)cn1 [I-116],–,–,1 nM,104 nM,0.7 nM
COc1ccccc1-c1cc(C(=O)/N=c2\[nH]c3ccccc3n2[C@H]2CCC[C@@H](O)C2)ccn1 [I-118],–,–,3 nM,34.5 nM,0.7 nM
Cn1cc(-c2cc(C(=O)/N=c3\[nH]c4ccccc4n3[C@H]3CCC[C@@H](O)C3)ccn2)cn1 [I-126],–,–,6 nM,305 nM,3.1 nM
Cn1cc(-c2cc(C(=O)/N=c3\[nH]c4ccccc4n3[C@@H]3CCC[C@H](O)C3)ccn2)cn1 [I-128],–,–,7 nM,1130 nM,4 nM
CC(C)(O)Cn1/c(=N/C(=O)c2ccnc(-c3cccnc3)c2)[nH]c2cc(CC(=O)N3CCCCC3)ccc21 [I-130],> 100000 nM,178 nM,5 nM,–,–
COC[C@H]1CCCN1Cc1ccc2c(c1)[nH]/c(=N\C(=O)c1ccnc(-c3ccccc3OC)c1)n2[C@H]1CC[C@@H](O)CC1 [I-152],–,–,4 nM,–,–
COc1ccccc1-c1cc(C(=O)/N=c2\[nH]c3cc(CN4CCCC(OC)C4)ccc3n2[C@H]2CC[C@@H](O)CC2)ccn1 (some centres unmarked) [I-153],–,–,4 nM,–,–
Cn1cc(-c2cc(C(=O)/N=c3\[nH]c4ccccc4n3[C@@H]3CCCC[C@H]3O)ccn2)cn1 [I-154],–,–,9 nM,–,–
COc1ccccc1-c1cc(C(=O)/N=c2\[nH]c3ccccc3n2[C@H]2COCC[C@@H]2O)ccn1 [I-155],–,–,5 nM,–,–

# Second part, the compound after the results:
"IC50 [1, 4]","IC50 [2, 5]",IC50 [3],"IC50 [1, 6]","IC50 [2, 7]",Structure (SMILES)
–,–,6 nM,–,–,COc1ccccc1-c1cc(C(=O)/N=c2\[nH]c3cc(CN4CC[C@@H](OC)C4)ccc3n2[C@H]2CC[C@@H](O)CC2)ccn1 [I-159]
–,–,6 nM,–,–,O=C(/N=c1\[nH]c2ccccc2n1[C@H]1CC[C@@H](O)CC1)c1ccnc(-c2ccccc2Cl)c1 [I-160]
–,–,7 nM,–,–,COc1cnccc1-c1cc(C(=O)/N=c2\[nH]c3ccccc3n2CC(C)(C)O)ccn1 [I-164]
–,–,7 nM,–,–,Cn1cc(-c2cc(C(=O)/N=c3\[nH]c4cc(C5CCCCO5)ccc4n3CC(C)(C)O)ccn2)cn1 (centres unmarked) [I-165]
–,–,7 nM,–,–,Cc1ccccc1-c1cc(C(=O)/N=c2\[nH]c3ccccc3n2[C@H]2CC[C@@H](O)CC2)ccn1 [I-166]
–,–,8 nM,–,–,COc1ccccc1-c1cc(C(=O)/N=c2\[nH]c3ccccc3n2[C@H]2CCC[C@H](O)C2)ccn1 [I-170]
–,–,9 nM,–,–,CNc1ccc2c(c1)[nH]/c(=N\C(=O)c1ccnc(-c3cnn(C)c3)c1)n2CC(C)(C)O [I-172]
–,–,9 nM,–,–,COc1ncccc1-c1cc(C(=O)/N=c2\[nH]c3ccccc3n2[C@H]2CC[C@@H](O)CC2)ccn1 [I-173]
–,–,9 nM,–,–,O=C(/N=c1\[nH]c2ccccc2n1[C@H]1CC[C@@H](O)CC1)c1ccnc(-c2coc3ccccc23)c1 [I-174]
–,–,12 nM,–,–,O=C(/N=c1\[nH]c2ccccc2n1[C@H]1CC[C@@H](O)CC1)c1ccnc(-c2ccc(F)cc2)c1 [I-177]
–,–,12 nM,–,–,Cn1cc(-c2cc(C(=O)/N=c3\[nH]c4cc(CCC(C)(C)O)ccc4n3CC(C)(C)O)ccn2)cn1 [I-178]
–,–,15 nM,–,–,Cn1cnc2c(-c3cc(C(=O)/N=c4\[nH]c5ccccc5n4[C@H]4CC[C@@H](O)CC4)ccn3)cccc21 [I-182]
–,–,23 nM,–,–,COc1ccccc1-c1cc(C(=O)/N=c2\[nH]c3ccccc3n2[C@H]2CCCC[C@H]2O)ccn1 [I-186]
–,–,24 nM,–,–,O=C(/N=c1\[nH]c2ccccc2n1[C@H]1CC[C@@H](O)CC1)c1ccnc(-c2ccccc2OC(F)(F)F)c1 [I-187]
–,–,30 nM,–,–,CC(C)(O)Cn1/c(=N/C(=O)c2ccnc(-n3ccc4cccnc43)c2)[nH]c2ccccc21 [I-188]
–,–,33 nM,–,–,Cn1cc(-c2cc(C(=O)/N=c3\[nH]c4ccccc4n3[C@H]3COCC[C@@H]3O)ccn2)cn1 [I-190]
–,–,68 nM,–,–,CCOC(=O)CCc1ccc2c(c1)[nH]/c(=N\C(=O)c1ccnc(-c3cnn(C)c3)c1)n2CC(C)(C)O [I-193]
–,–,74 nM,–,–,Cn1cc(-c2cc(C(=O)/N=c3\[nH]c4cc(F)ccc4n3CC(C)(C)O)ccn2)cn1 [I-194]
–,–,85 nM,–,–,Cn1cc(-c2cc(C(=O)/N=c3\[nH]c4ccc(F)cc4n3CC(C)(C)O)ccn2)cn1 [I-195]
–,–,18 nM,–,–,Cn1cc(-c2cc(C(=O)/N=c3\[nH]c4cc(C5CCNCC5)ccc4n3[C@H]3CC[C@@H](O)CC3)ccn2)cn1 [I-218]
–,–,7 nM,–,–,O=C(/N=c1\[nH]c2ccccc2n1[C@H]1CC[C@@H](O)CC1)c1ccnc(-n2ccnc2)c1 [I-226]
–,–,2 nM,–,–,Cc1cc(C(=O)/N=c2\[nH]c3ccc(N4CCN(C)CC4)cc3n2[C@H]2CC[C@@H](O)CC2)cc(-c2cnn(C)c2)n1 [I-227]
–,–,2 nM,–,–,Cc1cc(C(=O)/N=c2\[nH]c3ccc(C4CCN(C)CC4)cc3n2C2CCCCC2)cc(-c2cnn(C)c2)n1 [I-228]
–,–,23 nM,–,–,COCCN1CCC(c2ccc3[nH]/c(=N\C(=O)c4cc(C)nc(-c5cnn(C)c5)c4)n(C4CCCCC4)c3c2)CC1 [I-229]
–,–,63 nM,–,–,Cc1cc2c(cc1N(C)C)[nH]/c(=N\C(=O)c1ccnc(-c3cnn(C)c3)c1)n2CC(C)(C)O [I-231]
–,–,1 nM,–,–,CN1CCN(c2ccc3[nH]/c(=N\C(=O)c4cc(F)nc(-c5cnn(C)c5)c4)n(C4CCCCC4)c3c2)CC1 [I-232]
–,–,2 nM,–,–,Cc1cc(C(=O)/N=c2\[nH]c3ccc(N4CCN(C)CC4)cc3n2C2CCCCC2)cc(-c2cnn(C)c2)n1 [I-233]
–,–,4 nM,–,–,COc1ccccc1-c1cc(C(=O)/N=c2\[nH]c3ccccc3n2[C@@H]2CC[C@@H](O)[C@@H](O)C2)ccn1 [I-234]
